Assays:
[1] = target: T1, MRS-AIMP3 (Homo sapiens, UniProt P56192); assay: Yeast two hybrid specificity test, LexA-MRS/B42-AIMP3 pair; type: cell-based; settings: compound at 50 μg/ml, DMSO control 1.4732
T1 construct: expressed in transfected cells; host or cells: yeast
T1 sequence (P56192 1-900): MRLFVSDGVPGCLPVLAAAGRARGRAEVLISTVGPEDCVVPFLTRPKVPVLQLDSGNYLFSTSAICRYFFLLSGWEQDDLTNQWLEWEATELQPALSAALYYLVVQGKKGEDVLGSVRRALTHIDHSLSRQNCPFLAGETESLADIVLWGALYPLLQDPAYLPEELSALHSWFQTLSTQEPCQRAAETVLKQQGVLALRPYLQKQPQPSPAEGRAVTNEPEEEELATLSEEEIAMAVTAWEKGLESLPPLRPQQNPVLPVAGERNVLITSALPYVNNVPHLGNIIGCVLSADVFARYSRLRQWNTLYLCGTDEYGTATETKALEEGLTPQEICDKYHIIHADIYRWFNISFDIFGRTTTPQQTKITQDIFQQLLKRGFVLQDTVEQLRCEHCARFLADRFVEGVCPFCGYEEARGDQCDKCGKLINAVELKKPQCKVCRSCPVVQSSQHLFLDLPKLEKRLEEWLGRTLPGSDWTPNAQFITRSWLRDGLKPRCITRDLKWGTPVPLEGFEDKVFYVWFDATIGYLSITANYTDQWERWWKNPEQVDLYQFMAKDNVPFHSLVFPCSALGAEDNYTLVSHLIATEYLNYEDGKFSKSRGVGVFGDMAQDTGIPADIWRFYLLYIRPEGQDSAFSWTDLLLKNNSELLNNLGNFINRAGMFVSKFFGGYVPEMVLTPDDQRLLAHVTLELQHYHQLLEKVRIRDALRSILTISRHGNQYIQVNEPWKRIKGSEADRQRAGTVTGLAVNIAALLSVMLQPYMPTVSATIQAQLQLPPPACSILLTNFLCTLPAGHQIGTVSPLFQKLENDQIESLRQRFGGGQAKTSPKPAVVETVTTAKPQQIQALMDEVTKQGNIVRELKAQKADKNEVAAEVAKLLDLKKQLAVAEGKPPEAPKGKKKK
Procedure: On the compound of the present invention obtained by screening a library of compounds, the extent of inhibition on the interaction between KRS and laminin receptor (67LR) was determined by a yeast two hybrid assay, as described below. KRS, LR, AIMP2, AIMP3 and MRS were cloned at LexA vector (clontech) and B42 vector (clontech) each so as to produce required vectors. From among the vectors, LexA-KRS vector and B42-LR vector were co-transformed into yeast EGY/SH cells, and then the yeast cells were diluted to an absorbance (540 nm wavelength) of 0.2 in galactose medium not containing uracil (Ura), histidine (His), tryptophane (Trp) and leucine (Leu), and placed in an amount of 200 u in a 96 well plate. 1 μl of each compound at a concentration of 10 mg/ml was placed in each well, incubated for 6 days, and the absorbance was measured at 540 nm. […] The inhibitory specificity of the selected compound was tested by using two different interaction pairs such as LexA-KRS/B42-AIMP2 and LexA-MRS/B42-AIMP3. […]

[2] = system: MMP2; assay: MMP2 activity (zymography); type: cell-based, human; settings: KL1 in different amounts
Procedure: On MMP2 activity (FIG. 37) and cell migration (FIGS. 38 and 39), KL1-dose-dependent effect was measured. For the test on the cell migration, the cells were treated with KL1 for 8 hours. In FIG. 40, in order to see the effect of KL1 on protein synthesis of cells, A549 cells were treated with KL1 at indicated concentrations, and starved in methionine-free medium. Then, [^35S] methionine was added thereto for 2 hours. Then, the cells were incubated in complete medium for 4 hours, and the level of added methionine was measured by a scintillation counter. In FIG. 41, KL1-dose-dependent cytotoxicity was measured by using A549 cells. In FIG. 42, the effect of KL1 on cancer metastasis was measured according to the method as described above. In each group, 6 mice were included, and KL1 was abdominally injected for 3 weeks, in a dose of 30 mg/kg once a day. Then, the mice were sacrificed. The metastasized tumor nodules over 1 mm in diameter were counted, and their average was calculated (left). The photograph of a representative lung is shown at the right side. In FIG. 43, on a KL1 treated group and a KL1 non-treated, primary tumors were observed.
A549 cells were transfected with the plasmids encoding the indicated siRNAs and recombinant KRS (or DRS) were incubated for 48 and 24 hours, respectively, and were inoculated to RPMI medium containing 10% FBS (1×10^5 cells/well). […]

In the case of CCC(C(=O)O)n1/c(=N/C(=O)c2ccc(C)cc2)sc2ccccc21 (centres unmarked) [Compound of formula 15, 2-[2-(4-Methyl-benzoylimino)-benzothiazol-3-yl]-butyric acid], the “MRS-AIMP3 (yeast growth, OD level)” value [1] is reported as 1.2443 and the MMP2 activity [2] is reported as “inhibited”.
